Assays:
Type in all cases: in vivo
[1] = system: Surinam grass (Brachiaria decumbens); test: Test B postemergence; conditions: 13 to 15 days
Summary of the method: (§1)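 Greenhouse test: chemicals are formulated in a surfactant-containing non-phytotoxic solvent and applied either preemergence to planted seeds or postemergence to plants 2 to 18 cm tall. Response is rated visually versus controls after 13 to 15 days, 0 meaning no effect and 100 complete control.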

[2] = system: barnyardgrass (Echinochloa crus-galli); test: Test B postemergence; conditions: 13 to 15 days
Summary of the method: as §1

[3] = system: blackgrass (Alopecurus myosuroides); test: Test B postemergence; conditions: 13 to 15 days
Summary of the method: as §1

[4] = system: cocklebur (Xanthium strumarium); test: Test B postemergence; conditions: 13 to 15 days
Summary of the method: as §1

[5] = system: corn (Zea mays); test: Test B postemergence; conditions: 13 to 15 days
Summary of the method: as §1

[6] = system: crabgrass (Digitaria sanguinalis); test: Test B postemergence; conditions: 13 to 15 days
Summary of the method: as §1

[7] = system: giant foxtail (Setaria faberii); test: Test B postemergence; conditions: 13 to 15 days
Summary of the method: as §1

[8] = system: lambsquarters (Chenopodium album); test: Test B postemergence; conditions: Rate 500 g/ha, scale 0 to 100, 0 is no effect, 100 is complete control, 13 to 15 days
Summary of the method: as §1

[9] = system: morning glory (Ipomoea hederacea); test: Test B postemergence; conditions: Rate 500 g/ha, scale 0 to 100, 0 is no effect, 100 is complete control, 13 to 15 days
Summary of the method: as §1

[10] = system: pigweed (Amaranthus retroflexus); test: Test B postemergence; conditions: Rate 500 g/ha, scale 0 to 100, 0 is no effect, 100 is complete control, 13 to 15 days
Summary of the method: as §1

[11] = system: velvetleaf (Abutilon theophrasti); test: Test B postemergence; conditions: Rate 500 g/ha, scale 0 to 100, 0 is no effect, 100 is complete control, 13 to 15 days
Summary of the method: as §1

[12] = system: wheat (Triticum aestivum); test: Test B postemergence; conditions: Rate 500 g/ha, scale 0 to 100, 0 is no effect, 100 is complete control, 13 to 15 days
Summary of the method: as §1

[13] = system: wild oat (Avena fatua); test: Test B postemergence; conditions: Rate 500 g/ha, scale 0 to 100, 0 is no effect, 100 is complete control, 13 to 15 days
Summary of the method: as §1

[14] = system: Surinam grass (Brachiaria decumbens); test: Test B preemergence
Summary of the method: as §1

[15] = system: barnyardgrass (Echinochloa crus-galli); test: Test B preemergence
Summary of the method: as §1

[16] = system: cocklebur (Xanthium strumarium); test: Test B preemergence
Summary of the method: as §1

[17] = system: corn (Zea mays); test: Test B preemergence
Summary of the method: as §1

[18] = system: crabgrass (Digitaria sanguinalis); test: Test B preemergence
Summary of the method: as §1

[19] = system: giant foxtail (Setaria faberii); test: Test B preemergence
Summary of the method: as §1

[20] = system: lambsquarters (Chenopodium album); test: Test B preemergence
Summary of the method: as §1

[21] = system: morning glory (Ipomoea hederacea); test: Test B preemergence
Summary of the method: as §1

[22] = system: pigweed (Amaranthus retroflexus); test: Test B preemergence
Summary of the method: as §1

[23] = system: rice (Oryza saliva); test: Test B preemergence
Summary of the method: as §1

[24] = system: velvetleaf (Abutilon theophrasti); test: Test B preemergence
Summary of the method: as §1

[25] = system: barnyardgrass (Echinochloa crus-galli); test: Test C flooded paddy test; conditions: for Barnyardgrass plant response rating: Flooded Paddy, scale 0 to 100, 0 no effect, 100 complete control; for Plant response rating, Barnyardgrass: flooded paddy test, scale 0 to 100 (0 no effect, 100 complete control)
Summary of the method: (§2)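 Visually assessed vs untreated controls 12–14 d post-treatment (greenhouse). Flooded paddy plants were at the 2-leaf stage; scale 0 = no effect, 100 = complete control.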

[26] = system: duck salad (Heteranthera limosa); test: Test C flooded paddy test; conditions: for Ducksalad plant response rating: Flooded Paddy, scale 0 to 100, 0 no effect, 100 complete control; for Plant response rating, Ducksalad: flooded paddy test, scale 0 to 100 (0 no effect, 100 complete control)
Summary of the method: as §2

[27] = system: rice (Oryza saliva); test: Test C flooded paddy test; conditions: for Rice plant response rating: Flooded Paddy, scale 0 to 100, 0 no effect, 100 complete control; for Plant response rating, Rice: flooded paddy test, scale 0 to 100 (0 no effect, 100 complete control)
Summary of the method: as §2

[28] = system: smallflower flatsedge (Cyperus difformis); test: Test C flooded paddy test; conditions: for Flatsedge plant response rating: Flooded Paddy, scale 0 to 100, 0 no effect, 100 complete control; for Plant response rating, Flatsedge: flooded paddy test, scale 0 to 100 (0 no effect, 100 complete control)
Summary of the method: as §2

[29] = Rate 125 g/ha, scale 0 (no effect) to 100 (complete control)
[30] = Rate 500 g/ha, scale 0 to 100, 0 is no effect, 100 is complete control
[31] = Preemergence, Rate 500 g/ha, scale 0 to 100, 0 no effect, 100 complete control
[32] = preemergence, Rate 125 g/ha, scale of 0 to 100 where 0 is no effect and 100 is complete control, 13 to 15 days

Cc1ccc(N2CCC(n3ccc(C(C)(C)C)n3)C2=O)cc1OCCI (stereo not shown) [Compound 108]
Plant response rating, Surinam grass [1, 29]: 0
Plant response rating, Surinam grass [1, 30]: 20
Plant response rating, Barnyardgrass [2, 29]: 0
Plant response rating, Barnyardgrass [2, 30]: 0
Plant response rating, Blackgrass [3, 29]: 0
Plant response rating, Blackgrass [3, 30]: 0
Plant response rating, Cocklebur [4, 29]: 20
Plant response rating, Cocklebur [4, 30]: 40
Plant response rating, Corn [5, 29]: 0
Plant response rating, Corn [5, 30]: 0
Plant response rating, Crabgrass [6, 29]: 0
Plant response rating, Crabgrass [6, 30]: 0
Plant response rating, Foxtail, Giant [7, 29]: 0
Plant response rating, Foxtail, Giant [7, 30]: 0
Plant response rating, Lambsquarters [8]: 80
Plant response rating, Morningglory [9]: 70
Plant response rating, Pigweed [10]: 40
Plant response rating, Velvetleaf [11]: 60
Plant response rating, Wheat [12]: 0
Plant response rating, Wild Oat [13]: 0
Plant response rating, Surinam grass [14, 31]: 30
Plant response rating, Surinam grass [14, 32]: 0
Plant response rating, Barnyardgrass [15, 31]: 0
Plant response rating, Barnyardgrass [15, 32]: 0
Plant response rating, Cocklebur [16, 31]: 0
Plant response rating, Cocklebur [16, 32]: 0
Plant response rating, Corn [17, 31]: 0
Plant response rating, Corn [17, 32]: 0
Plant response rating, Crabgrass [18, 31]: 0
Plant response rating, Crabgrass [18, 32]: 0
Plant response rating, Foxtail, Giant [19, 31]: 20
Plant response rating, Foxtail, Giant [19, 32]: 0
Plant response rating, Lambsquarters [20, 31]: 100
Plant response rating, Lambsquarters [20, 32]: 100
Plant response rating, Morningglory [21, 31]: 0
Plant response rating, Morningglory [21, 32]: 0
Plant response rating, Pigweed [22, 31]: 60
Plant response rating, Pigweed [22, 32]: 20
Plant response rating, Rice [23, 31]: 0
Plant response rating, Rice [23, 32]: 0
Plant response rating, Velvetleaf [24, 31]: 0
Plant response rating, Velvetleaf [24, 32]: 0
Barnyardgrass plant response rating ([25]; Rate 250 g/ha): 0
Barnyardgrass plant response rating ([25]; Rate 500 g/ha): 20
Plant response rating, Barnyardgrass ([25]; Rate 62 g/ha): 0
Plant response rating, Barnyardgrass ([25]; Rate 125 g/ha): 0
Ducksalad plant response rating ([26]; Rate 250 g/ha): 0
Ducksalad plant response rating ([26]; Rate 500 g/ha): 0
Plant response rating, Ducksalad ([26]; Rate 62 g/ha): 0
Plant response rating, Ducksalad ([26]; Rate 125 g/ha): 0
Rice plant response rating ([27]; Rate 250 g/ha): 0
Rice plant response rating ([27]; Rate 500 g/ha): 0
Plant response rating, Rice ([27]; Rate 62 g/ha): 0
Plant response rating, Rice ([27]; Rate 125 g/ha): 0
Flatsedge plant response rating ([28]; Rate 250 g/ha): 30
Flatsedge plant response rating ([28]; Rate 500 g/ha): 90
Plant response rating, Flatsedge ([28]; Rate 62 g/ha): 0
Plant response rating, Flatsedge ([28]; Rate 125 g/ha): 0

Source: patent publication US7138361B2, “Herbicidal heterocycles” (E. I. du Pont de Nemours and Company, priority 2000, dated 2006)
